In patent US20230031406A1, “COMPOUNDS AND COMPOSITIONS FOR TREATING CONDITIONS ASSOCIATED WITH NLRP ACTIVITY” (Novartis AG, priority 2018, published 2023):
Like-named read-outs stand apart in the source and are kept apart here. Blank lines part the entries; values can stand above or below the compound they belong to.

Tested on: PMA-differentiated THP-1 cells
Assay: IL-1β production in PMA-differentiated THP-1 cells stimulated with gramicidin (hTHP-1 assay containing 2% fetal bovine serum; Procedures 1 and 2)
Assay type: cell-based, human
Details: 2% fetal bovine serum, class symbols
Outline: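 Secreted IL-1β, read by HTRF, after gramicidin challenge (5 μM, 2 h) of THP-1 cells differentiated with PMA (20 ng/ml, 16-18 h) and plated at 50,000 cells/well in 2% FBS medium. Compounds, 0.0017-100 μM final with 0.37% DMSO, were added 1 h before stimulation.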

[1] = Table B3, hTHP-1 assay, read-out: IC50
[2] = Table B1, read-out: Average IC50 of compounds in hTHP-1 assay: hTHP-1 IC50
[3] = Table B2, read-out: hTHP-1 IC50

IC50 [1]: 5000 to 30000 nM
Structure (SMILES): CCn1cc(F)c(S(N)(=O)=NC(=O)Nc2c3c(nc(C4CC4)c2C2CC2)CCC3)n1 (single isomer, unassigned) [Example 708, (S) or (R)-N′-((2,3-dicyclopropyl-6,7-dihydro-5H-cyclopenta[b]pyridin-4-yl)carbamoyl)-1-ethyl-4-fluoro-1H-pyrazole-3-sulfonimidamide]

IC50 [2]: 8 to 40 nM
Structure (SMILES): CC(C)(O)c1cc(F)c(S(N)(=O)=NC(=O)Nc2c3c(nc4c2CCC4(C)C)CCC3)s1 (single isomer, unassigned) [Compound 102b, (R) or (S)-N′-((3,3-dimethyl-1,2,3,5,6,7-hexahydro-dicyclopenta[b,e]pyridin-8-yl)carbamoyl)-3-fluoro-5-(2-hydroxy-propan-2-yl)thiophene-2-sulfonimidamide]

IC50 (Homo sapiens, THP-1, Table B2, read-out: hTHP-1 IC50): 200 to 1000 nM
Structure (SMILES): C[C@@H]1CCc2c1nc1c(c2NC(=O)N=S(N)(=O)c2ccn(C(C)(F)F)n2)CCC1 (some centres unmarked) [Compound 723c]

IC50 [3]: 40 to 200 nM
Structure (SMILES): Cc1c(C(F)(F)F)nc2c(c1NC(=O)N=S(N)(=O)c1sc(C(C)(C)O)cc1F)CCC2 (single isomer, unassigned) [Compound 632a, (R) or (S)-3-Fluoro-5-(2-hydroxypropan-2-yl)-N′-((3-methyl-2-(trifluoromethyl)-6,7-dihydro-5H-cyclopenta[b]pyridin-4-yl)carbamoyl) thiophene-2-sulfonimidamide]

IC50 (Homo sapiens, THP-1, Table B1, read-out: Average IC50 of compounds in hTHP-1 assay: hTHP-1 IC50): 1000 to 5000 nM
Structure (SMILES): CC(C)(O)c1ccc(S(N)(=O)=NC(=O)Nc2c3c(nc4c2CCC4)CCC3)cn1 (single isomer, unassigned) [Compound 156b, (R) or (S)-N′-((1,2,3,5,6,7-hexahydrodicyclo-penta[b,e]pyridin-8-yl)carbamoyl)-6-(2-hydroxypropan-2-yl)pyridine-3-sulfonimidamide]

IC50 [2]: 1000 to 5000 nM
Structure (SMILES): CC(C)(O)c1cc(F)c(S(N)(=O)=NC(=O)Nc2c3c(nc4c2CCC4)CCC3)s1 (single isomer, unassigned) [Compound 105b, (S) or (R)-3-fluoro-N′-((1,2,3,5,6,7-hexahydro-dicyclopenta[b,e]pyridin-8-yl)carbamoyl)-5-(2-hydroxypropan-2-yl)thio-phene-2-sulfonimidamide]

IC50 [3]: 5000 to 30000 nM
Structure (SMILES): Cc1c(C2CC2)nc2c(c1NC(=O)N=S(N)(=O)c1cc(C(C)(C)O)cs1)CCC2C (single isomer, unassigned) [Compound 656c, (S, R) or (S, S) or (R, S) or (R, R)-N′-((2-Cyclopropyl-3,7-dimethyl-6,7-dihydro-5H-cyclopenta[b]pyridin-4-yl)carbamoyl)-4-(2-hydroxypropan-2-yl)thiophene-2-sulfonimidamide]

IC50 [1]: 5000 to 30000 nM
Structure (SMILES): C[C@@H]1CCc2c1nc1c(c2NC(=O)N=S(N)(=O)c2nn(C(F)F)cc2F)CCC1 (single isomer, unassigned) [Example 680, (S) or (R)-1-(difluoromethyl)-4-fluoro-N′-(((R)-3-methyl-1,2,3,5,6,7-hexahydrodicyclopenta[b,e]pyridin-8-yl)carbamoyl)-1H-pyrazole-3-sulfonimidamide]

IC50 [3]: 40 to 200 nM
Structure (SMILES): Cc1c(C(C)C)nc2c(c1NC(=O)N=S(N)(=O)c1sc(C(C)(C)O)cc1F)CCC2 (single isomer, unassigned) [Compound 645a, (R) or (S)-3-Fluoro-5-(2-hydroxypropan-2-yl)-N′-((2-isopropyl-3-methyl-6,7-dihydro-5H-cyclopenta[b]pyridin-4-yl)carbamoyl) thiophene-2-sulfonimidamide]

IC50 (Homo sapiens, THP-1, Table B4, read-out: hTHP-1 IC50): 1000 to 5000 nM
Structure (SMILES): CCc1c(C(F)(F)F)nc2c(c1NC(=O)N=S(N)(=O)c1nn(CC)cc1F)CCC2 (centres unmarked) [Example 743, 1-Ethyl-N′-((3-ethyl-2-(trifluoromethyl)-6,7-dihydro-5H-cyclopenta[b]pyridin-4-yl)carbamoyl)-4-fluoro-1H-pyrazole-3-sulfonimidamide]

IC50 (Homo sapiens, THP-1, Table B3, hTHP-1 assay, read-out: IC50): 200 to 1000 nM
Structure (SMILES): Cc1c(C(F)(F)F)nc2c(c1NC(=O)N=S(N)(=O)c1nn(C(F)F)cc1F)CCC2 (centres unmarked) [Example 561, 1-(Difluoromethyl)-4-fluoro-N′-((3-methyl-2-(trifluoromethyl)-6,7-dihydro-5H-cyclopenta[b]pyridin-4-yl)carbamoyl)-1H-pyrazole-3-sulfonimidamide]
